Data as given in US10919891B2, “Heterocyclic compound” (TAKEDA PHARMACEUTICAL COMPANY LIMITED, priority 2017, dated 2021).

Assays:
[1] = biological target: T1, human CaSR (Homo sapiens, UniProt P41180); assay: Human CaSR Antagonist Activity (CHO cells, NFAT-Luciferase reporter); format: cell-based; conditions: CHO, 2 h, 3.3 μm test compound; CaCl2 final 1.3 mM; 100% = reference carboxamide at 10 μM; read-out: Inhibition rate (%) at 3.3 μm
T1 construct: expressed in transfected cells; host or cells: CHO cells
T1 sequence (P41180 20-1078): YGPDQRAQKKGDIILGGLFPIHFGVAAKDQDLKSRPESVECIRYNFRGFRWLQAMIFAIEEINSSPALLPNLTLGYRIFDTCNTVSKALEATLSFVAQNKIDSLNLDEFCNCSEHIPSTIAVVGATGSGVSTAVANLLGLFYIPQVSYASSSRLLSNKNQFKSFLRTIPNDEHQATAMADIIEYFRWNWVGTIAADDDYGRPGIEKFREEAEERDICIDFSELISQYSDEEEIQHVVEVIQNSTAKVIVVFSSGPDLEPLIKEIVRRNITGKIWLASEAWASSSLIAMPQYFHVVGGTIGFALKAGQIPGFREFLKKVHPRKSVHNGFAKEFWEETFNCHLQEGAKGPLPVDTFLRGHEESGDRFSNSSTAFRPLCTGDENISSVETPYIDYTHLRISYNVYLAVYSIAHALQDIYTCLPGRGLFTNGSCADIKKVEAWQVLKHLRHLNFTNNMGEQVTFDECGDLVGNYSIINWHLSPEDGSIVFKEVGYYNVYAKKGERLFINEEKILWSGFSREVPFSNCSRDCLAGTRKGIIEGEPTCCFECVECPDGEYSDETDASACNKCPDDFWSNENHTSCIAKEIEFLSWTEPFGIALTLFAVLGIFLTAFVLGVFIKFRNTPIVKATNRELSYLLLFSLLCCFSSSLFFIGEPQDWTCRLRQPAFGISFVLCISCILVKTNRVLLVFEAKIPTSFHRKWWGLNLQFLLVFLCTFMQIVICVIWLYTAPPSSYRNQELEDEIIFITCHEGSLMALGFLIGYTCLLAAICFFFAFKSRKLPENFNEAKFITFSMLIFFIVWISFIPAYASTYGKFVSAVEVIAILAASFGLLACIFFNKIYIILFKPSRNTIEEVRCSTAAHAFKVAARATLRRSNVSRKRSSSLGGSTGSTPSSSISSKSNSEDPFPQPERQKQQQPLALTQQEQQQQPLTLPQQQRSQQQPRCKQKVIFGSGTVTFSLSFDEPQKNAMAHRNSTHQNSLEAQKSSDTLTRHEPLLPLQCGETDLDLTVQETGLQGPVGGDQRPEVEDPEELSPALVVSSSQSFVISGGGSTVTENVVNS
Experimental: CaSR antagonist activity measurement was performed using Bright-Glo Luciferase assay system (Promega Corporation). CHO cells in which human CaSR and NFAT-Luciferase reporter gene were forcibly expressed were suspended in MEM alpha (Wako Pure Chemical Industries, Ltd.) containing 10% dialyzed serum (HyClone). The cells in suspension was seeded in 384-well white plate (Corning) at 10,000/20 μL/well, and cultured in an incubator of 37° C., 5% CO2 for one day. A diluent of Test compound was prepared with assay buffer (MEM alpha containing 10 mM HEPES (Life Technologies) and 10% dialysis serum). The diluent was added to the plate at 5 μL/well and allowed to stand at 37° C. for 10 minutes. Further, a diluent of 7.8 mM CaCl2 prepared with assay buffer (final concentration 1.3 mM) was added at 5 μl/well and allowed to stand in an incubator of 37° C., 5% CO2 for 2 hours. Bright-Glo reagents (Promega Corporation) were added at 10 μL/well, and the obtained mixture was stirred for 5 minutes, and then luminescence intensity was measured using Multi-label reader Envision (PerkinElmer, Inc.). The activity (%) of the test compound was calculated with the definitions in which the luminescence intensity when DMSO is added in place of the test compound is defined as 0% inhibition; and the luminescence intensity when (5R)—N-(1-ethyl-1-(4-ethylphenyl)propyl)-2,7,7-trimethyl-5-phenyl-4,5,6,7-tetrahydropyrazolo[1,5-a]Pyrimidine-3-carboxamide at final concentration of 10 μM is added is defined as 100% inhibition.

[2] = tested on: CSQ-Tg mice; assay: Heart weight lowering effect in heart failure animal model; format: in vivo; conditions: for Heart weight (Mean ± standard deviation (mg)): female CSQ-Tg mice
Experimental: In this Test Example, the heart weight lowering effect of the compound of Example 1 was evaluated using CSQ-Tg mice as animal model for heart failure.
The compound of Example 1 was suspended in 0.5% methylcellulose aqueous solution (hereinafter, in Test Examples, sometimes referred to as “vehicle”) (10 mL/kg). The obtained suspension was orally administered to 5-week old female CSQ-Tg mice developing heart failure at a dose of 10 mg/kg bodyweight/day (n=7) or 30 mg/kg bodyweight/day (n=10) once daily (QD) for 21 days. For a negative control (vehicle administration group), 0.5% methylcellulose aqueous solution (n=7) was administered. Then, weights of the hearts were measured. The measurement of the weights was carried out by fractionating each of the hearts into four: left ventricle, right ventricle, left atrium, and right atrium. The sum of the weights of the four fractions was defined as the heart weight.

[3] = tested on: CSQ-Tg mice; assay: Effect on survival rate of heart failure animal model; format: in vivo
Excerpt: In this Test Example, effect of the compound of Example 1 on survival rate was examined using heart failure animal models. The mice reported in Larry R. Jones et al., J. Clin. Invest. 101: 1385-1393, 1998 were obtained from the University of Pennsylvania and bred in-house, which were cardiac-specific transgenic mice of Calsequestrin (CSQ)(CSQ-Tg mice) as the heart failure animal models. In the study, female mice were used, and dosing was started from the age of 5 weeks. The animals were fed with chow (CE-2, CLEA Japan, Inc.) and tap water under the condition of room temperature of 20 to 26° C., humidity of 40 to 70%, and lighting time of 12 hours/day (7:00 to 19:00). As already reported, in the CSQ-Tg mice, Ca^2+ intracellular release was suppressed, myocardial contraction was reduced, cardiac output was decreased, and cardiac hypertrophy and heart failure were developed.
To 5-week old female CSQ-Tg mice, the compound of Example 1 was orally administered at a dose of 10 mg/kg bodyweight/day with a frequency of once daily (QD) for 47 days (n=24). While, to the control group, vehicle (0.5% methylcellulose aqueous solution) was administered (n=24).
To 5-week old female CSQ-Tg mice, the compound of Example 1 was orally administered at a dose of 10 mg/kg bodyweight/day in combination with candesartan cilexetil (1 mg/kg bodyweight/day) with a frequency of once daily (QD) for 68 days (n=18). […]

[4] = 10 mg/kg bodyweight/day oral QD for 21 days
[5] = 30 mg/kg bodyweight/day oral QD for 21 days

Compound: CC1(C)C[C@H](c2ccccc2)Nc2c(C(=O)N3C[C@@H]4C[C@]4(c4ccc(Cl)c(Cl)c4)C3)cnn21 [Example 1, ((1S,5R)-1-(3,4-Dichlorophenyl)-3-azabicyclo[3.1.0]hex-3-yl)((5R)-7,7-dimethyl-5-phenyl-4,5,6,7-tetrahydropyrazolo[1,5-a]pyrimidin-3-yl)methanone]
- inhibition at 3.3 µM [1]: 100%
- Left atrium weight (Mean ± standard deviation (mg)) [2, 4]: 10.7 ± 3.5 mg
- Left ventricle weight (Mean ± standard deviation (mg)) [2, 4]: 160.1 ± 11.9 mg
- Right atrium weight (Mean ± standard deviation (mg)) [2, 4]: 6.2 ± 3.1 mg
- Right ventricle weight (Mean ± standard deviation (mg)) [2, 4]: 44.9 ± 5.1 mg
- Heart weight (Mean ± standard deviation (mg)) [2, 4]: 221.9 ± 18.2 mg
- Left atrium weight (Mean ± standard deviation (mg)) [2, 5]: 9.6 ± 2.6 mg
- Left ventricle weight (Mean ± standard deviation (mg)) [2, 5]: 153.2 ± 12.7 mg
- Right atrium weight (Mean ± standard deviation (mg)) [2, 5]: 5.8 ± 2.4 mg
- Heart weight (Mean ± standard deviation (mg)) [2, 5]: 212.5 ± 21.9 mg
- Right ventricle weight (Mean ± standard deviation (mg)) ([2]; 30 mg/kg bodyweight/day oral QD for 21 days, ** Williams' multiple comparison test (p < 0.025)): 43.9 ± 6.9** mg
- Survival rates, log-rank test p ([3]; 10 mg/kg bodyweight/day co-administered with candesartan cilexetil (1 mg/kg bodyweight/day) QD 68 days vs candesartan cilexetil mono-administration (FIG. 2)): < 0.001
- Survival rates, log-rank test p ([3]; 10 mg/kg bodyweight/day oral QD for 47 days vs vehicle administration group (FIG. 1)): < 0.025
